# According to ChEMBL document CHEMBL5113424, “Identification of small-molecule urea derivatives as PTPC modulators targeting the c subunit of F1/Fo-ATP synthase” (Bioorg Med Chem Lett, 2022):
# Calls of active or inactive are those of the source. The rule behind the calls is not given here.
# System: AC16 [Human hybrid]
# Assay: Inhibition of PTPC in human AC16 cells at 1 uM measured by calcein-cobalt assay relative to control
# Format: cell-based
# Settings: not given
row,Compound,inhibition
1,O=C(NC1CC1)NC1CC1,3.87%
2,COc1ccc(NC(=O)Nc2ccccc2)cc1,4.6%
3,O=C(Nc1ccccc1)Nc1ccccc1,28.1%
4,O=C(NC1CCCC1)NC1CCCC1,16.4%
5,CC(C)(C)NC(=O)NC1CCCCC1,43.2%
6,CCOC(=O)c1ccc(NC(=O)Nc2ccc(C(=O)OCC)cc2)cc1,9.75%
7,O=C(NC1CCCCC1)NC1CCCCC1,28%
8,C(=NC1CCCCC1)=NC1CCCCC1,Active
9,N#Cc1ccc(NC(=O)Nc2ccc(C#N)cc2)cc1,25.4%

# Species: Homo sapiens
# Assay: Binding affinity to F1F0-ATP synthase subunit C (unknown origin) measured by cellular thermal shift assay (CETSA)
# Settings: not given
row,Compound,Activity
1,O=C(NC1CCCCC1)NC1CCCCC1,Active

# System: AC16 [Human hybrid]
# Assay: Activation of PTPC in human AC16 cells at 1 uM measured by calcein-cobalt assay relative to control
# Format: cell-based
# Settings: not given
row,Compound,inhibition [%]
1,S=C(NC1CCCCC1)NC1CCCCC1,32.4
2,O=C(NCc1ccccc1)NCc1ccccc1,30.4
3,S=C(Nc1ccccc1)NC1CCCCC1,3
4,S=C(NCc1ccccc1)NCc1ccccc1,37.2

# Same assay, conditions: filed as activator
row,Compound,inhibition [%]
1,CC(C)(C)OC(=O)NC1CCCCC1,42.5
2,COc1ccc(NC(=O)Nc2ccc(OC)cc2)cc1,53.6
